Results from US7612107B2, “Treatment and inhibition of disease conditions using flexible heteroarotinoids” (The Board of Regents of the University of Oklahoma, priority 2005, dated 2009).

Tested on: ovarian cancer cells
Test: Microarray analysis of gene expression in SHetA2-treated ovarian cancer cells
Type: cell-based, Homo sapiens
Method: Microarray analysis was conducted to determine specific disease causing genes which were expressed at higher (>1 fold) or lower (<1 fold) levels than normal in ovarian cancer cells treated with SHetA2 (see Table 6).

[1] = Genbank AI358954, Neuromuscular Diseases

In the case of `CC1(C)CC(C)(C)c2cc(NC(=S)Nc3ccc([N+](=O)[O-])cc3)ccc2S1` [SHetA2], the “Fold: Putative c-Myc-responsive (RCL)” value (Genbank AA523444, Cancer) is reported as 0.41 Fold, the “Fold: Myeloidlymphoid or mixed-lineage leukemia (trithorax (Drosophila) homolog); translocated to, 4 (HGC6.3)” value (Genbank AB016902.2, Cancer) is reported as 5.07 Fold and the “Fold: Vascular endothelial growth factor (VEGF)” value (Genbank AF022375.1) is reported as 0.47 Fold. For the same molecule, the “Fold: METH1 protein (METH1), contain a repeated amino acid motif homologous to the anti-angiogenic type 1 repeats of thromospondin-1 (TSP1)” value (Genbank AF060152.1) was 0.39 Fold, the “Fold: EHT protein” value (Genbank AF068266.1, Cancer) was 2.80 Fold and the “Fold: Familial Mediterranean fever locus region” value (Genbank AF098968.1, Autoimmune Diseases) was 0.30 Fold. For the same molecule, the “Fold: Myeloidlymphoid leukemia 2 (MLL2)” value (Genbank AF105279.1, Cancer) was 0.31 Fold, the “Fold: Glypican-6 (GPC6)” value (Genbank AF111178.1) was 2.07 Fold and the “Fold: Hemochromatosis splice variant 495-2314del, Iron Storage Disorder” value (Genbank AF144243.1, Storage and Metabolism Deficiencies) was 3.01 Fold. For the same molecule, the “Fold: BAGE2 antigen (BAGE2)” value (Genbank AF218570.1, Cancer) was 0.34 Fold, the “Fold: Prothymosin alpha (PTMA)” value (Genbank AF257099, Polycystic Kidney Disease) was 2.60 Fold and the “Fold: Deleted in lymphocytic leukemia, 2/DEF = Homo sapiens BCMS-upstream neighbor (BCMSUN)” value (Genbank AF264787.1, Cancer) was 0.33 Fold. For the same molecule, the “Fold: Deleted in lymphocytic leukemia, BCMS-upstream neighbor (BCMSUN) (DLEU2)” value (Genbank AF264787.1, Cancer) was 0.40 Fold, the “Fold: PNAS-128 in leukemia” value (Genbank AF277186.1, Cancer) was 0.36 Fold and the “Fold: BAM in multiple myeloma” value (Genbank AF455755.1, Cancer) was 3.05 Fold. The “Fold: Cervical cancer suppressor gene-4 protein (HCCS-4)” value (Genbank AF465843.1, Cancer) was 2.06 Fold, the “Fold: FLJ23538 fis, highly similar to BETA2 Human MEN1(Multiple Endocrine Neoplasia) region clone epsilonbeta (BETA2)” value (Genbank AI042152, Cancer) was 0.31 Fold and the “Fold: ESTs, Moderately similar to S72399 ras-homolog GTPase rab28 isoform S” value (Genbank AI080106, Cancer) was 7.75 Fold. For the same molecule, the “Fold: Prostate cancer associated protein 5 (PCANAP5)” value (Genbank AI299378, Cancer) was 0.23 Fold, the “Fold: ESTs, Weakly similar to DRPL_Human Atrophin-1 (DRPL) in Huntington's disease (HD) and dentatorubral and pallidoluysian atrophy (DRPLA) dentatorubral-pallidoluysian atrophy” value [1] was 2.52 Fold and the “Fold: ESTs, Weakly similar to DRPL_Human Atrophin-1 (DRPL) in dentatorubral-pallidoluysian atrophy” value [1] was 2.52 Fold. For the same molecule, the “Fold: B-cell CLLlymphoma 3 (BCL3)” value (Genbank AI829875, Cancer) was 2.58 Fold, the “Fold: Lipoma cell line Li-538SV40 ectopic sequence from HMGI-C fusion mRNA, 3 sequence (LI)” value (Genbank AI990940, Cancer) was 0.47 Fold and the “Fold: Butyrophilin, subfamily 3, member A2 (BTN3A2) milk protein” value (Genbank AI991252, Autoimmune Diseases) was 2.31 Fold. The “Fold: Disintegrin-like and metalloprotease (reprolysin type) with thrombospondin type 1 motif, highly similar to Homo sapiens metalloproteinase with thrombospondin type 1 motifs (ADAMTS1)” value (Genbank AK023795.1) was 0.43 Fold, the “Fold: 3-hydroxyisobutyrate dehydrogenase, mitochondrial precursor” value (Genbank AK025558) was 0.00 Fold and the “Fold: NICE-5 protein” value (Genbank AW779859, Cancer) was 0.48 Fold. For the same molecule, the “Fold: ASPLTFE3 type 2 fusion protein, ASPLTFE3 type 1 fusion protein mRNA in Sarcoma” value (Genbank AY034077.1, Cancer) was 0.46 Fold, the “Fold: RASSF3 isoform A, putative tumor suppressor” value (Genbank AY062002.1, Cancer) was 2.88 Fold and the “Fold: A kinase (PRKA) anchor protein 1, clone MGC: 1807” value (Genbank BC000729.1) was 2.00 Fold. The “Fold: IMAGE: 3050107 mRNA, TBC1 domain family” value (Genbank BC001525, Cancer) was 0.67 Fold, the “Fold: v-Myc avian myelocytomatosis viral related oncogene, neuroblastoma derived (MYCN)” value (Genbank BC002712.1, Cancer) was 3.99 Fold and the “Fold: aarF domain containing kinase 4” value (Genbank BC013114) was 2.30 Fold. For the same molecule, the “Fold: Similar to vitelliform macular dystrophy (Best disease, bestrophin)” value (Genbank BC041664.1, Eye Diseases) was 0.26 Fold, the “Fold: Thrombospondin 1 (THBS1)” value (Genbank BE999967) was 0.42 Fold and the “Fold: SNRPN upstream reading frame (SNURF) in Prader-Willi and Angelman syndrome” value (Genbank BF114870, Neuromuscular Diseases) was 0.39 Fold. For the same molecule, the “Fold: Novel MAFF (v-maf musculoaponeurotic fibrosarcoma (avian) oncogene family, protein F) LIKE protein” value (Genbank Cluster Incl. AL021977, Cancer) was 0.47 Fold, the “Fold: Butyrophilin (BTF3) - Milk Fat” value (Genbank Cluster Incl. U90548, Autoimmune Diseases) was 2.15 Fold and the “Fold: Facioscapulohumeral muscular dystrophy (FSHD) gene region, D4Z4 tandem repeat unit” value (Genbank D38024, Skeletal Diseases) was 2.43 Fold. The “Fold: FYN oncogene related to SRC, FGR and YES, c-syn protooncogene” value (Genbank M14333.1, Cancer) was 0.44 Fold, the “Fold: Nephropontin inhibits urine crystals - kidney stones” value (Genbank M83248.1, Storage and Metabolism Deficiencies) was 2.34 Fold and the “Fold: FYN oncogene related to SRC, FGR and YES (FYN)” value (Genbank N20923, Cancer) was 0.13 Fold. The “Fold: Sarcoglycan, gamma (35 kD dystrophin-associated glycoprotein) (Muscular Dystrophy)” value (Genbank NM_000231.1, Skeletal Diseases) was 0.04 Fold.
